US12134610B2, “Somatostatin subtype-2 receptor (SST2R) targeted therapeutics and uses thereof” (priority 2022, dated 2024)
Where two headings read alike, the source gives them in different places. Starred links: 1 amine or outer side, 2 acyl side, 3 side chain; linkers in the order of their positions; H or OH if unused. Non-standard residues stand in square brackets, D forms with d. Residues, ends and D or L forms follow the SMILES beside them. *: point of attachment. PABC(3-O-βDGlc) = O=C(OCc1ccc(N[*:1])c(O[C@@H]2O[C@H](CO)[C@@H](O)[C@H](O)[C@H]2O)c1)[*:2]; X1 = Cc1cc(F)cc(-c2cnc(NCCNC(=O)CCOCCC(=O)*)c(-c3nc4ccc(Cl)cc4[nH]3)c2N2CCC(N)CC2)c1; Dolaproine = CO[C@@H]([C@@H]1CCCN1)[C@@H](C)C(=O)O; Dil = CC[C@H](C)[C@H](NC)[C@@H](CC(=O)O)OC; X2 = C[C@@H](N*)[C@@H](O)c1ccccc1; NMeV = CN[C@H](C(=O)O)C(C)C

Legend:
Type in all cases: cell-based
[1] = target: T1, human somatostatin receptor subtype 2 (Homo sapiens, UniProt P30874); assay: Functional cAMP assay for SSTR2 agonists (HTRF) in CHO-K1 cells; conditions: CHO-K1 cells stably expressing human SST2, 20 min
T1 construct: expressed in transfected cells
How it was run: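 CHO-K1 cells stably expressing receptor, plated 4 days before assay, treated 20 min at 37° C. with compound (typically 0-10,000 nM final) plus IBMX and 1.6 μM NKH477 to raise cAMP. HTRF read, 665/620 nm ratio; cAMP from standard curve, EC50 fitted.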

[2] = system: NCI-H524 (ATCC) human small cell lung cancer cells
How it was run: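 NCI-H524 cells (5,000/well) were exposed 24 h after plating to SMDC for 2 h, 11-point two-fold series from 1 uM. After washout they grew a further 70 h. Proliferation was read by CellTiter-Glo luminescence, % inhibition taken vs untreated control, and IC50 fitted by four-parameter nonlinear regression.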

SST2 = target: T2, SST2 (Homo sapiens, UniProt P30874); assay: PathHunter CHO-K1 SST2 internalization assay; conditions: PathHunter CHO-K1 SST2, 90 min
T2 construct: host or cells: PathHunter CHO-K1 SST2 cells
How it was run: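 PathHunter CHO-K1 SST2 cells, seeded and grown 48 h, were exposed to 11-point 1:3 dilutions of SMDC (top final 10 uM) for 90 min at 37 C, 5% CO2. Beta-Glo luminescence was read after 60 min at room temperature. Background-corrected duplicate means were fitted by four-parameter nonlinear regression to give IC50.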

[3] = 2 h treatment, washout, additional 70 h, read-out: H524 EC50

T2 sequence (P30874 whole entry): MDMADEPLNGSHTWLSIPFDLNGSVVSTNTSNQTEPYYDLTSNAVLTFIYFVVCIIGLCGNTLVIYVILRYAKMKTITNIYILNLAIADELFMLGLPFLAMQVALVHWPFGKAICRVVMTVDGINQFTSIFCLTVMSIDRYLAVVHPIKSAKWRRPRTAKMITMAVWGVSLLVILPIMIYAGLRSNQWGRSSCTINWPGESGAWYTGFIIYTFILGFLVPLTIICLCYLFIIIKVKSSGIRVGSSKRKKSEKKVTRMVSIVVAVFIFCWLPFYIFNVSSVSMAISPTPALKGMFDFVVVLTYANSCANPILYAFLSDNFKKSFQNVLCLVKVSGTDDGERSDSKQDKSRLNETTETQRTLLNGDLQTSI
T1 sequence (P30874 whole entry): as above

Row | Compound | EC50 ([1]; read-out: hSST2 cAMP Avg EC50) [nM] | EC50 ([2]; 2 h) [nM] | EC50 (SST2; read-out: Internalization EC50) [nM] | EC50 ([1]; hSST2 cAMP Avg EC50 (nM)) [nM] | EC50 [2, 3] [nM] | EC50 (SST2; Internalization EC50 (nM)) [nM]
1 | CC[C@H](C)[C@@H]([C@@H](CC(=O)N1CCC[C@H]1[C@H](OC)[C@@H](C)C(=O)N[C@H](C)[C@@H](O)c1ccccc1)OC)N(C)C(=O)[C@@H](NC(=O)[C@H](C(C)C)N(C)C(=O)OCc1ccc(NC(=O)[C@H](CCCNC(N)=O)NC(=O)[C@@H](NC(=O)[C@H](CCC(N)=O)NC(=O)CCOCCC(=O)NCCNc2ncc(-c3cc(C)cc(F)c3)c(N3CCC(N)CC3)c2-c2nc3ccc(Cl)cc3[nH]2)C(C)C)cc1C(=O)NCCN)C(C)C [Compound 57] | 0.38 | 15 | 5.7 | – | – | –
2 | CC[C@H](C)[C@@H]([C@@H](CC(=O)N1CCC[C@H]1[C@H](OC)[C@@H](C)C(=O)N[C@H](C)[C@@H](O)c1ccccc1)OC)N(C)C(=O)[C@@H](NC(=O)[C@H](C(C)C)N(C)C(=O)OCc1ccc(NC(=O)[C@H](CCCNC(N)=O)NC(=O)[C@@H](NC(=O)[C@H](CCC(N)=O)NC(=O)CCOCCOCCOCCOCCC(=O)NCCNc2ncc(-c3cc(C)cc(F)c3)c(N3CCC(N)CC3)c2-c2nc3ccc(Cl)cc3[nH]2)C(C)C)cc1C(=O)NCCN)C(C)C [Compound 58] | 0.37 | 11 | 5 | – | – | –
3 | CC[C@H](C)[C@@H]([C@@H](CC(=O)N1CCC[C@H]1[C@H](OC)[C@@H](C)C(=O)N[C@H](C)[C@@H](O)c1ccccc1)OC)N(C)C(=O)[C@@H](NC(=O)[C@H](C(C)C)N(C)C(=O)OCc1ccc2cc1C(=O)NCCNC(=O)CC[C@H](NC(=O)CCOCCC(=O)NCCNc1ncc(-c3cc(C)cc(F)c3)c(N3CCC(N)CC3)c1-c1nc3ccc(Cl)cc3[nH]1)C(=O)N[C@@H](C(C)C)C(=O)N[C@@H](CCCNC(N)=O)C(=O)N2)C(C)C [Compound 59] | 0.35 | 14 | 6.5 | – | – | –
4 | CC[C@H](C)[C@@H]([C@@H](CC(=O)N1CCC[C@H]1[C@H](OC)[C@@H](C)C(=O)N[C@H](C)[C@@H](O)c1ccccc1)OC)N(C)C(=O)[C@@H](NC(=O)[C@H](C(C)C)N(C)C(=O)OCc1ccc(NC(=O)[C@H](CCCNC(N)=O)NC(=O)[C@@H](NC(=O)[C@H](CCC(N)=O)NC(=O)CCOCCOCCOCCOCCC(=O)NCCNc2ncc(-c3cc(C)cc(F)c3)c(N3CCC(N)CC3)c2-c2nc3ccc(Cl)cc3[nH]2)C(C)C)cc1C(=O)NC)C(C)C [Compound 60] | 0.1 | 35 | 13 | – | – | –
5 | CC[C@H](C)[C@@H]([C@@H](CC(=O)N1CCC[C@H]1[C@H](OC)[C@@H](C)C(=O)N[C@H](C)[C@@H](O)c1ccccc1)OC)N(C)C(=O)[C@@H](NC(=O)[C@H](C(C)C)N(C)C(=O)OCc1ccc(NC(=O)[C@H](CCCNC(N)=O)NC(=O)[C@@H](NC(=O)CCOCCOCCOCCOCCC(=O)NCCNc2ncc(-c3cc(C)cc(F)c3)c(N3CCC(N)CC3)c2-c2nc3ccc(Cl)cc3[nH]2)C(C)C)c(O[C@@H]2O[C@H](C(=O)O)[C@@H](O)[C@H](O)[C@H]2O)c1)C(C)C [Compound 62] | 0.2 | 61.2 | 14 | – | – | –
6 | CC[C@H](C)[C@@H]([C@@H](CC(=O)N1CCC[C@H]1[C@H](OC)[C@@H](C)C(=O)N[C@H](C)[C@@H](O)c1ccccc1)OC)N(C)C(=O)[C@@H](NC(=O)[C@H](C(C)C)N(C)C(=O)OCc1ccc(NC(=O)[C@H](CCCNC(N)=O)NC(=O)[C@@H](NC(=O)CCCCC(=O)NCCNc2ncc(-c3cc(C)cc(F)c3)c(N3CCC(N)CC3)c2-c2nc3ccc(Cl)cc3[nH]2)C(C)C)c(O[C@@H]2O[C@H](C(=O)O)[C@@H](O)[C@H](O)[C@H]2O)c1)C(C)C [Compound 63] | 0.16 | 13 | 16 | – | – | –
7 | CC[C@H](C)[C@@H]([C@@H](CC(=O)N1CCC[C@H]1[C@H](OC)[C@@H](C)C(=O)N[C@H](C)[C@@H](O)c1ccccc1)OC)N(C)C(=O)[C@@H](NC(=O)[C@H](C(C)C)N(C)C(=O)OCc1ccc(NC(=O)CCOCCOCCOCCOCCC(=O)NCCNc2ncc(-c3cc(C)cc(F)c3)c(N3CCC(N)CC3)c2-c2nc3ccc(Cl)cc3[nH]2)c(O[C@@H]2O[C@H](C(=O)O)[C@@H](O)[C@H](O)[C@H]2O)c1)C(C)C [Compound 64] | 0.1 | 9500 | 12 | – | – | –
8 | CC[C@@]1(O)C(=O)OCc2c1cc1n(c2=O)Cc2c-1nc1cc(F)c(C)c3c1c2[C@@H](NC(=O)OCc1ccc(NC(=O)[C@H](C)NC(=O)[C@@H](NC(=O)CCOCCC(=O)NCCNc2ncc(-c4cc(C)cc(F)c4)c(N4CCC(N)CC4)c2-c2nc4ccc(Cl)cc4[nH]2)C(C)C)c(O[C@@H]2O[C@H](C(=O)O)[C@@H](O)[C@H](O)[C@H]2O)c1)CC3 [Compound 65] | – | – | – | 0.27 | 250 | 1.5
9 | CC[C@H](C)[C@@H]([C@@H](CC(=O)N1CCC[C@H]1[C@H](OC)[C@@H](C)C(=O)N[C@H](C)[C@@H](O)c1ccccc1)OC)N(C)C(=O)[C@@H](NC(=O)[C@H](C(C)C)N(C)C(=O)OCc1ccc(NC(=O)[C@H](C)NC(=O)[C@@H](NC(=O)CCOCCC(=O)N[C@@H](CS(=O)(=O)O)C(=O)NCCNc2ncc(-c3cc(C)cc(F)c3)c(N3CCC(N)CC3)c2-c2nc3ccc(Cl)cc3[nH]2)C(C)C)c(O[C@@H]2O[C@H](CO)[C@@H](O)[C@H](O)[C@H]2O)c1)C(C)C [Compound 66] | 0.13 | 300 | 15 | – | – | –
10 | CC[C@H](C)[C@@H]([C@@H](CC(=O)N1CCC[C@H]1[C@H](OC)[C@@H](C)C(=O)N[C@H](C)[C@@H](O)c1ccccc1)OC)N(C)C(=O)[C@@H](NC(=O)[C@H](C(C)C)N(C)C(=O)OCc1ccc(NC(=O)[C@H](C)NC(=O)[C@@H](NC(=O)[C@H](CCC(=O)O)NC(=O)CCOCCC(=O)NCCNc2ncc(-c3cc(C)cc(F)c3)c(N3CCC(N)CC3)c2-c2nc3ccc(Cl)cc3[nH]2)C(C)C)c(O[C@@H]2O[C@H](CO)[C@@H](O)[C@H](O)[C@H]2O)c1)C(C)C [Compound 67] (X1-EVA[PABC(3-O-βDGlc)][NMeV]V[Dil][Dolaproine]-X2) | 0.19 | 41 | 6.7 | – | – | –
11 | CC[C@H](C)[C@@H]([C@@H](CC(=O)N1CCC[C@H]1[C@H](OC)[C@@H](C)C(=O)N[C@H](C)[C@@H](O)c1ccccc1)OC)N(C)C(=O)[C@@H](NC(=O)[C@H](C(C)C)N(C)C(=O)OCc1ccc(NC(=O)[C@H](CCCNC(N)=O)NC(=O)[C@@H](NCCOCCOCCOCCOCCC(=O)NCCNc2ncc(-c3cc(C)cc(F)c3)c(N3CCC(N)CC3)c2-c2nc3ccc(Cl)cc3[nH]2)C(C)C)cc1)C(C)C [Compound 69] | 0.25 | 14.5 | 7.8 | – | – | –
12 | CC[C@H](C)[C@@H]([C@@H](CC(=O)N1CCC[C@H]1[C@H](OC)[C@@H](C)C(=O)N[C@H](C)[C@@H](O)c1ccccc1)OC)N(C)C(=O)[C@@H](NC(=O)[C@H](C(C)C)N(C)C(=O)OCc1ccc(NC(=O)[C@H](CCCNC(N)=O)NC(=O)[C@@H](NC(=O)CCOCCC(=O)N[C@@H](CS(=O)(=O)O)C(=O)NCCNc2ncc(-c3cc(C)cc(F)c3)c(N3CCC(N)CC3)c2-c2nc3ccc(Cl)cc3[nH]2)C(C)C)cc1)C(C)C [Compound 70] | 0.44 | 68 | 17 | – | – | –
13 | CC[C@@]1(O)C(=O)OCc2c1cc1n(c2=O)Cc2c-1nc1cc(F)c(C)c3c1c2[C@@H](NC(=O)OCc1ccc(NC(=O)[C@H](CCCNC(N)=O)NC(=O)[C@@H](NC(=O)[C@H](CCC(=O)O)NC(=O)CCOCCC(=O)NCCNc2ncc(-c4cc(C)cc(F)c4)c(N4CCC(N)CC4)c2-c2nc4ccc(Cl)cc4[nH]2)C(C)C)cc1)CC3 [Compound 71] | – | – | – | 0.29 | 270 | 1.6
14 | CC[C@@]1(O)C(=O)OCc2c1cc1n(c2=O)Cc2c-1nc1cc(F)c(C)c3c1c2[C@@H](NC(=O)OCc1ccc(NC(=O)[C@H](CCCNC(N)=O)NC(=O)[C@@H](NC(=O)CN2CCN(CC(=O)O)CCN(CC(=O)NCCOCCC(=O)NCCNc4ncc(-c5cc(C)cc(F)c5)c(N5CCC(N)CC5)c4-c4nc5ccc(Cl)cc5[nH]4)CC2)C(C)C)cc1)CC3 [Compound 72] | – | – | – | 0.28 | 31 | 3.9
15 | CC[C@H](C)[C@@H]([C@@H](CC(=O)N1CCC[C@H]1[C@H](OC)[C@@H](C)C(=O)N[C@H](C)[C@@H](O)c1ccccc1)OC)N(C)C(=O)[C@@H](NC(=O)[C@H](C(C)C)N(C)C(=O)OCc1ccc(NC(=O)[C@H](CCCNC(N)=O)NC(=O)[C@@H](NC(=O)CCC(=O)NCCNc2ncc(-c3cc(C)cc(F)c3)c(N3CCC(N)CC3)c2-c2nc3ccc(Cl)cc3[nH]2)C(C)C)c(O[C@@H]2O[C@H](C(=O)O)[C@@H](O)[C@H](O)[C@H]2O)c1)C(C)C [Compound 75] | 0.54 | 16.5 | 8.9 | – | – | –
